Results published in patent US11247987B2, “Inhibiting ubiquitin specific peptidase 30” (FORMA Therapeutics, Inc., priority 2017, dated 2022).

These compounds were tested against T1, human recombinant USP30 (Homo sapiens, UniProt Q70CQ3) (assay: Ubiquitin-Rhodamine 110 Assay for USP30 Activity (USP30 Inhibitor Biochemical Assay)). Settings: 0.2 nM USP30, 25 nM Ub-Rh110, 30 min preincubation, 30 min at room temperature; read-out: USP30 potency range (USP30 biochemical IC50 assay, IC50 ranges).
T1 construct: purchased Boston Biochem E-582
T1 sequence (Q70CQ3 1-517): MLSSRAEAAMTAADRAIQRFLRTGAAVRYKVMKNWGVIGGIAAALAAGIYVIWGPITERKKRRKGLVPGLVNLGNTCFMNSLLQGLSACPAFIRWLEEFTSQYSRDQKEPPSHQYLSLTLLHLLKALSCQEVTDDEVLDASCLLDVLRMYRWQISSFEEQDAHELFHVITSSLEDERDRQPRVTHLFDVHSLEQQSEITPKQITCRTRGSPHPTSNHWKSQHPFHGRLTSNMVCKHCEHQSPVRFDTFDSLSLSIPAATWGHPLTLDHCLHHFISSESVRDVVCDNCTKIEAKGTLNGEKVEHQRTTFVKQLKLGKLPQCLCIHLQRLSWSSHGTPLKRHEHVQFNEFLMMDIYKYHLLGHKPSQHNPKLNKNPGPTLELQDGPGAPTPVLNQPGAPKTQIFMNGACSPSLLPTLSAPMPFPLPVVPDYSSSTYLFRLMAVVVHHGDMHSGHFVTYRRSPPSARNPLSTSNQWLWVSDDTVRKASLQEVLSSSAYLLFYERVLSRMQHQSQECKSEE
Summary of the method: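 Human recombinant USP30 (0.2 nM final) was preincubated 30 min with compound (25 μM to 1.3 nM, 10-point) in Tris pH 8.0, 1 mM GSH, BGG and Triton X-100. Ub-Rh110 was then added for 30 min at room temperature and stopped with citric acid. Fluorescence at 485/535 nm gave % inhibition and a 4-parameter IC50 fit.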

Row | SMILES | IC50
1 | N#CN[C@H]1C[C@H](C(=O)Nc2nc(-c3ccc(Cl)cc3)cs2)C1 [Compound 1-68, (1r,3r)-N-[4-(4-chlorophenyl)-1,3-thiazol-2-yl]-3-(cyanoamino)cyclo-butane-1-carboxamide] | 0.1 to 1 µM
2 | N#CN[C@H]1C[C@H](C(=O)Nc2cccc(-c3ccccc3)c2)C1 [Compound 1-69, (1r,3r)-3-(cyanoamino)-N-(3-phenylphenyl)cyclo-butane-1-carboxamide] | 0.1 to 1 µM
3 | CC(C)c1ccc(CNC(=O)[C@H]2C[C@H](NC#N)C2)cc1 [Compound 1-70, (1r,3r)-3-(cyanoamino)-N-{[4-(propan-2-yl)phenyl]methyl} cyclobutane-1-carboxamide] | < 0.1 µM
4 | CC(C)(C)[C@H]1CC[C@@H](NC(=O)[C@H]2C[C@H](NC#N)C2)CC1 [Compound 1-71, (1r,3r)-3-(cyanoamino)-N-[(1s,4s)-4-tert-butylcyclohexyl]cyclo-butane-1-carboxamide] | 0.1 to 1 µM
5 | N#CN[C@H]1C[C@H](C(=O)Nc2cccc(C(F)(F)F)c2)C1 [Compound 1-73, (1r,3r)-3-(cyanoamino)-N-[3-(trifluoro-methyl)phenyl] cyclobutane-1-carboxamide] | 0.1 to 1 µM
6 | N#CNC1CN(C(=O)Nc2ncc(C3CCCCC3)s2)C1 [Compound 2-1, 3-(cyanoamino)-N-(5-cyclohexyl-1,3-thiazol-2-yl)azetidine-1-carboxamide] | 1 to 10 µM
7 | N#CN[C@H]1CCN(C(=O)Nc2ncc(C3CCCCC3)s2)C1 [Compound 2-2, (3S)-3-(cyanoamino)-N-(5-cyclohexyl-1,3-thiazol-2-yl)pyrrolidine-1-carboxamide] | 1 to 10 µM
8 | N#CN[C@H]1C[C@H](NC(=O)c2ncc(-c3ccccc3)s2)C1 [Compound 3-1, 5-phenyl-N-[(trans)-3-(cyanoamino)cyclobutyl]-1,3-thiazole-2-carboxamide] | 1 to 10 µM
9 | N#CNC1CC2(CCN2C(=O)c2cnc(-c3ccccc3)s2)C1 (stereo not drawn) [Compound 3-2, {[1-(2-phenyl-1,3-thiazole-5-carbonyl)-l-azaspiro[3.3]heptan-6-yl]amino} carbonitrile] | 0.1 to 1 µM
10 | Cn1cc(-c2ccc(-c3cc(C(=O)N[C@H]4C[C@@H](NC#N)C4)on3)cc2)cn1 [Compound 3-3, 3-[4-(1-methyl-1H-pyrazol-4-yl)phenyl]-N-[(1s,3s)-3-(cyanoamino)cyclobutyl]-1,2-oxazole-5-carboxamide] | 0.1 to 1 µM
11 | Cn1cc(-c2ccc(-c3cc(C(=O)N4CCC[C@]45C[C@H](NC#N)C5)on3)cc2)cn1 [Compound 3-4, {[(2r,4s)-5-{3-[4-(1-methyl-1H-pyrazol-4-yl)phenyl]-1,2-oxazole-5-carbonyl}-5-azaspiro[3.4]octan-2-yl]amino} carbonitrile] | 0.1 to 1 µM
12 | Cn1cc(-c2ccc(-c3cc(C(=O)N4CC[C@]45C[C@@H](NC#N)C5)on3)cc2)cn1 [Compound 3-5, {[(4r,6s)-1-{3-[4-(1-methyl-1H-pyrazol-4-yl)phenyl]-1,2-oxazole-5-carbonyl}-1-azaspiro[3.3]heptan-6-yl]amino} carbonitrile] | 0.1 to 1 µM
13 | CN(C(=O)c1cc(-c2cccc(C#N)c2)no1)[C@H]1C[C@H](NC#N)C1 [Compound 3-6, 3-(3-cyanophenyl)-N-methyl-N-[(1r,3r)-3-(cyanoamino)cyclobutyl]-1,2-oxazole-5-carboxamide] | 1 to 10 µM
14 | N#CN[C@H]1C[C@@H](NC(=O)c2ncc(-c3ccccc3)s2)C1 [Compound 4-1, 5-phenyl-N-[(cis)-3-(cyanoamino)cyclobutyl]-1,3-thiazole-2-carboxamide] | 1 to 10 µM
15 | N#CN[C@H]1C[C@@H](C(=O)Nc2cnn(-c3ccccc3)c2)C1 [Compound 5-1, cis-3-(cyanoamino)-N-(1-phenyl-1H-pyrazol-4-yl)cyclobutane-1-carboxamide] | 1 to 10 µM
16 | N#CN[C@H]1C[C@@H](C(=O)Nc2ccn(-c3ccccc3)n2)C1 [Compound 5-2, cis-3-(cyanoamino)-N-(1-phenyl-1H-pyrazol-3-yl)cyclobutane-1-carboxamide] | 10 to 25 µM
17 | N#CN[C@H]1C[C@@H](C(=O)Nc2ncc(C3CCCCC3)s2)C1 [Compound 5-3, cis-3-(cyanoamino)-N-(5-cyclohexyl-1,3-thiazol-2-yl)cyclobutane-1-carboxamide] | 1 to 10 µM
18 | N#CN[C@H]1C[C@@H](C(=O)Nc2ncc(-c3ccccc3)s2)C1 [Compound 5-4, cis-3-(cyanoamino)-N-(5-phenyl-1,3-thiazol-2-yl)cyclobutane-1-carboxamide] | 1 to 10 µM
19 | N#CN[C@H]1C[C@H](C(=O)Nc2cnn(-c3ccccc3)c2)C1 [Compound 5-5, trans-3-(cyanoamino)-N-(1-phenyl-1H-pyrazol-4-yl)cyclobutane-1-carboxamide] | 1 to 10 µM
20 | N#CN[C@H]1C[C@H](C(=O)Nc2ccn(-c3ccccc3)n2)C1 [Compound 5-6, trans-3-(cyanoamino)-N-(1-phenyl-1H-pyrazol-3-y1)cyclobutane-1-carboxamide] | 1 to 10 µM
21 | N#CN[C@H]1C[C@H](C(=O)Nc2ncc(C3CCCCC3)s2)C1 [Compound 5-7, trans-3-(cyanoamino)-N-(5-cyclohexyl-1,3-thiazol-2-yl)cyclobutane-1-carboxamide] | 0.1 to 1 µM
22 | N#CN[C@H]1C[C@H](C(=O)Nc2ncc(-c3ccccc3)s2)C1 [Compound 5-8, trans-3-(cyanoamino)-N-(5-phenyl-1,3-thiazol-2-yl)cyclobutane-1-carboxamide] | 1 to 10 µM
23 | N#CN[C@H]1C[C@@H](C(=O)Nc2ccc3c(c2)CCC3)C1 [Compound 5-9, cis-3-(cyanoamino)-N-(2,3-dihydro-1H-inden-5-yl)cyclobutane-1-carboxamide] | 1 to 10 µM
24 | CC(C)(C)c1cnc(NC(=O)[C@H]2C[C@@H](NC#N)C2)s1 [Compound 5-10, cis-N-(5-tert-butyl-1,3-thiazol-2-yl)-3-(cyanoamino)cyclobutane-1-carboxamide] | 10 to 25 µM
25 | N#CN[C@H]1C[C@@H](C(=O)N2CCN(c3ccccc3)CC2)C1 [Compound 5-11, {[cis-3-(4-phenylpiperazine-1-carbonyl)cyclobutyl]amino} carbonitrile] | 10 to 25 µM
26 | N#CN[C@H]1C[C@H](C(=O)Nc2ccc3c(c2)CCC3)C1 [Compound 5-12, trans-3-(cyanoamio)-N-(2,3-dihydro-1H-inden-5-yl)cyclobutane-1-carboxamide] | 1 to 10 µM
27 | CC(C)(C)c1cnc(NC(=O)[C@H]2C[C@H](NC#N)C2)s1 [Compound 5-13, trans-N-(5-tert-butyl-1,3-thiazol-2-yl)-3-(cyanoamino)cyclobutane-1-carboxamide] | 0.1 to 1 µM
28 | N#CN[C@H]1C[C@H](C(=O)Nc2ccc(N3CCOCC3)cc2)C1 [Compound 5-14, trans-3-(cyanoamino)-N-[4-(morpholin-4-yl)phenyl]cylobutane-1-carboxamide] | 10 to 25 µM
29 | N#CN[C@H]1C[C@@]2(CCN(c3nc(Cl)c(C4CCCCC4)s3)C2=O)C1 [Compound 7-2, {[(2s,4r)-6-(4-chloro-5-cyclohexyl-l,3-thiazol-2-yl)-5-oxo-6-azaspiro[3.4]octan-2-yl]amino}carbonitrile] | 0.1 to 1 µM
30 | N#CN[C@H]1C[C@]2(CCN(c3nc(Cl)c(C4CCCCC4)s3)C2=O)C1 [Compound 7-3, {[(2r,4s)-6-(4-chloro-5-cyclohexyl-1,3-thiazol-2-yl)-5-oxo-6-azaspiro[3.4]octan-2-yl]amino}carbonitrilc] | < 0.1 µM
